How the values were obtained:
human recombinant HDAC2 = target: T1, human recombinant HDAC2 (Homo sapiens, UniProt Q92769); assay: Two-step fluorogenic deacetylase assay, recombinant HDAC2; format: biochemical
T1 construct: purified recombinant human full length HDAC1 (cat# 50051), HDAC2 (cat# 50052); purchased BPS Bioscience (San Diego, CA) 50052
From the text: (§1) To assess the biochemical and cellular potency of 4b and its conversion products/metabolites, we utilized the two-step fluorogenic assay which measures the HDAC-mediated catalytic conversion of synthetic acetylated lysine substrates. In brief, on deacetylation of the substrates by HDAC activity, a protease site is unmasked which allows subsequent trypsin-mediated cleavage and release of the highly flourescent AMC molecules in a subsequent step of the assay. The substrates used were Lys_Ac_AMC (Bachem I-1875) for HDAC3 and (Ac)Arg-Gly-Lys(Ac) (Bachem I-1925) for HDAC1 and HDAC2. […] However, the relatively labile and sterically more demanding trifluoracetyl group is readily hydrolyzed by the catalytically less avid Class IIa enzymes, allowing measurement of Class IIa activity using the 2-step fluorogenic assay. […]
(§2) For evaluation of the class selectivity of the compounds, we assessed inhibition against purified recombinant human full length HDAC1 (cat# 50051), HDAC2 (cat# 50052), HDAC3-NcoR2 (cat# 50003) and HDAC8 (cat# 50008): as representative of Class I activity; catalytic domain HDAC4(αα 648–1057), HDAC5 (αα 657–1123; cat # 50005), HDAC7 (αα 518-end; cat # 50007) and HDAC9 (αα 604–1066; cat # 50009) activity: representing all Class IIa activity; and full length HDAC6 (cat#50006): representing Class IIb activity. […]

HDAC6 = target: T2, HDAC6 (Homo sapiens, UniProt Q9UBN7); assay: Two-step fluorogenic deacetylase assay, recombinant HDAC6; format: biochemical; conditions: up to 50 µM
T2 construct: full length HDAC6 (cat#50006); purchased BPS Bioscience (San Diego, CA) 50006
From the text: as §1, §2

[1] = Chemical stability in formulation or solution; format: physicochemical; conditions: free base; LC-MS day 1 and after 7 days; with or without heating
Description: Thomas and colleagues reported that a solution of 4b at 1 mg/mL was previously obtained using this procedure. […] We therefore prepared both TFA and hydrochloride (HCl) salts of 4b to establish whether they could offer improved solubility. Neither salt form of 4b was particularly soluble in water (<1 mg/ml). […] A study of the stability of the TFA salt also raised another more worrying issue in the use of 2-hydroxypropyl-β-cyclodextrin–complexed 4b salts for potential in vivo studies. […] The 4b. […] The lower than expected initial quantification of 4b was most likely due to the TFA salt rapidly degrading upon heating. Indeed, we always found the presence of the cyclised benzimidazole conversion product, named throughout as product C1, in the salt formulations even at t = 0 after preparation. Furthermore, the suspension was not stable upon standing in the dark with gentle shaking at room temperature, with a further 28% decrease observed in parent (4b) concentration on day 7 analysis, compared to day 1.
According to Thomas et al, verification of an acute pharmacodynamic response (the reversal of transcriptional dysregulation in the R6/2 model) was achieved by the repeated once daily injection of 150 mg/kg 4b in 50∶50 DMSO: PBS for three consecutive days. […] The lack of any pharmacodynamic response predictive of central Class I HDAC inhibition when 4b was dosed orally at 150 mg/kg twice daily for 5 days confirmed this prediction.

T2 sequence (Q9UBN7 whole entry): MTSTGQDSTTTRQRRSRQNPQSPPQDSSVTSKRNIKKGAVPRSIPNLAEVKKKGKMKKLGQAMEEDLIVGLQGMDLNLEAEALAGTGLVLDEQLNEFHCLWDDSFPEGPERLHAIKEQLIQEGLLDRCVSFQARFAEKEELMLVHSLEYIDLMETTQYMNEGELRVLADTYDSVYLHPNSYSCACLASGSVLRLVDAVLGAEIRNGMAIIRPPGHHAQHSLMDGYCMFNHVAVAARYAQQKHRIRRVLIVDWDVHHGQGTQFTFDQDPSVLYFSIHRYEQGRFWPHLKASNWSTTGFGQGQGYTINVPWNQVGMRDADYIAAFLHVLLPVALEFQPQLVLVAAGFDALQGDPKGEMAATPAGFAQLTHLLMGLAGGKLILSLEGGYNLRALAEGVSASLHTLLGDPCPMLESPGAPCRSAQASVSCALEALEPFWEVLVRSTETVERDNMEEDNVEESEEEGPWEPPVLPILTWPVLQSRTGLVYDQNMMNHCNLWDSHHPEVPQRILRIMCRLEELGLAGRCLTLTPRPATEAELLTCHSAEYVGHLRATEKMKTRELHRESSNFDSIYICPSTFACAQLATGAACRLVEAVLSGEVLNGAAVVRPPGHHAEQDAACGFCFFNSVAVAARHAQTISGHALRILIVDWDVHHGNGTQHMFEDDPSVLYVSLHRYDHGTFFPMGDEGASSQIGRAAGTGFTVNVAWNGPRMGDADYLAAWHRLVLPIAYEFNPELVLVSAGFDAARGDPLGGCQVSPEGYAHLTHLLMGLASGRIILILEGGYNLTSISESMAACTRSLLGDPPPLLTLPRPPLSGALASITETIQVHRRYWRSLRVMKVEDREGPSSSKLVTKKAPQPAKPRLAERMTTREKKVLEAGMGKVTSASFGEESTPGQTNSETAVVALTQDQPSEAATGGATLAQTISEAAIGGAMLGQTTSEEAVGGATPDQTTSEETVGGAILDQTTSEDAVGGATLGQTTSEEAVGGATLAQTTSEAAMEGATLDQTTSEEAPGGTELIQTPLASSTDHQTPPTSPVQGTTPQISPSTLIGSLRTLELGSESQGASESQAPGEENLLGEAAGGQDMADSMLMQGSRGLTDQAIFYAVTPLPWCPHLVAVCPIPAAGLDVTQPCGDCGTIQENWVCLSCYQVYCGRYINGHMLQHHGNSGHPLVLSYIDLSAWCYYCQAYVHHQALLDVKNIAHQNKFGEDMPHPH
T1 sequence (Q92769 whole entry): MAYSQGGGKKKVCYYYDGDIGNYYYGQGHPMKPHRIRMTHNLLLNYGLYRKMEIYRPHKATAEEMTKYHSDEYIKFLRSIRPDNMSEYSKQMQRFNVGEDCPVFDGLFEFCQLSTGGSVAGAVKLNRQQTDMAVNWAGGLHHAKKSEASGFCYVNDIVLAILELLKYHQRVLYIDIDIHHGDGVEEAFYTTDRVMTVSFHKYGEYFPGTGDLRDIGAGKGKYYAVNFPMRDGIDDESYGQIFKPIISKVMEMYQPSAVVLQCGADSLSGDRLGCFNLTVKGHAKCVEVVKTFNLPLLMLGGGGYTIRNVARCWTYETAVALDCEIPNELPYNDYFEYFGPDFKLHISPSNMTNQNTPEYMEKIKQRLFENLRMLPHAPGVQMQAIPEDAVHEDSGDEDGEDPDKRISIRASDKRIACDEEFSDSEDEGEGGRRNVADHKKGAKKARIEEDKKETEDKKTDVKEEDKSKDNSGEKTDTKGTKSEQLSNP

Nc1ccccc1NC(=O)CCCCCC(=O)Nc1ccccc1 [Compound 4b]
IC50 (human recombinant HDAC2): 2230 nM | activity against HDAC6 (HDAC6): No activity | degradation in cyclodextrin suspension [1]: no degradation

Source: paper PMC3433414, “Oral Administration of the Pimelic Diphenylamide HDAC Inhibitor HDACi 4b Is Unsuitable for Chronic Inhibition of HDAC Activity in the CNS In Vivo” (PLoS ONE, 2012)
